From patent publication US8871756B2 (Hoffmann-La Roche Inc., priority 2011, dated 2014)

Tested on: RSV infection
Experiment: not given
Settings: selected infants; intramuscularly at 15 mg/kg once a month for the duration of RSV season; cited from earlier work
In the case of palivizumab, the “reduction of hospitalization rate caused by RSV infection” value is given as 45-55%.

Tested on: RSV Long strain
Experiment: Viral cytopathic effect (CPE) assay, anti-RSV activity
Format: cell-based, Respiratory Syncytial Virus
Settings: RSV Long strain (ATCC); cell viability after 6 days, Cell Counting kit-8
In short: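 Cells (6×10^3/well, DMEM with 10% FBS) were infected next day with RSV Long strain, at a dose giving approximately 80–90% CPE, alongside serial half-log compound dilutions. Viability was read after 6 days by CCK-8 absorbance at 450 nm (reference 630 nm), and EC50 was derived from it.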
Compound `Cc1ccc2nc(N3CC[S+]([O-])c4ccccc4C3)cc(NCC3(N)COC3)c2c1` (single isomer, unassigned; (+)) [Example 18-2, (+)-N-[(3-Aminooxetan-3-yl)methyl]-6-methyl-2-[1-oxido-2,3-dihydro-1,4-benzothiazepin-4(5H)-yl]quinolin-4-amine] has an EC50 of 0.024 µM.
`Cc1ccc2nc(N3CC[S+]([O-])c4ccccc4C3)cc(NCC3(N)COC3)c2c1` (stereo not shown) [Example 18-1, N-[(3-Aminooxetan-3-yl)methyl]-6-methyl-2-(1-oxido-2,3-dihydro-1,4-benzothiazepin-4(5H)-yl)quinolin-4-amine] gave an EC50 of 0.003 µM.

Same assay, conditions: human respiratory syncytial virus, 144 h, RSV Long strain (ATCC); cell viability after 6 days, Cell Counting kit-8
In the case of `Cc1ccc2nc(N3CCS(=O)(=O)c4ccccc4C3)cc(NCCCN)c2c1` [Example 9-3, N-[2-(1,1-Dioxido-2,3-dihydro-1,4-benzothiazepin-4(5H)-yl)-6-methylquinolin-4-yl]propane-1,3-diamine], the EC50 is reported as 0.001 µM.
`NCCNc1cc(N2CCCc3ccc(F)cc3C2)nc2ccccc12` [Example 118-7, N-[2-(8-Fluoro-1,3,4,5-tetrahydro-2H-2-benzazepin-2-yl)quinolin-4-yl]ethane-1,2-diamine] gave an EC50 of 0.166 µM.
Work on `Cc1ccc2nc(N3CCS(=O)(=O)c4ccccc4C3)cc(N(C)C)c2c1` [Example 16-2, 2-(1,1-Dioxido-2,3-dihydro-1,4-benzothiazepin-4(5H)-yl)-N,N,6-trimethylquinolin-4-amine] yielded an EC50 of 9.64 µM.
For `COc1ccc2c(c1)CN(c1cc(NCC3(CNC(C)=O)COC3)c3cc(C)ccc3n1)CCS2(=O)=O` [Example 3-6, N-{[3-({[2-(7-Methoxy-1,1-dioxido-2,3-dihydro-1,4-benzothiazepin-4(5H)-yl)-6-methylquinolin-4-yl]amino}methyl)oxetan-3-yl]methyl}acetamide], the EC50 was 0.058 µM.
For `Cc1ccc2nc(N3CCS(=O)(=O)c4ccccc4C3)cc(NCC3(CN)CSC3)c2c1` [Example 6-1, N-{[3-(Aminomethyl)thietan-3-yl]methyl}-2-(1,1-dioxido-2,3-dihydro-1,4-benzothiazepin-4(5H)-yl)-6-methylquinolin-4-amine], the EC50 was 0.025 µM.
With `COCCNCCNc1cc(N2CCS(=O)(=O)c3ccccc3C2)nc2ccc(C)cc12` [Example 3-44, N-[2-(1,1-Dioxido-2,3-dihydro-1,4-benzothiazepin-4(5H)-yl)-6-methylquinolin-4-yl]-N′-(2-methoxyethyl)ethane-1,2-diamine] the EC50 was 0.012 µM.
`Cc1ccc2nc(N3CCS(=O)(=O)c4ccccc4C3)cc(NCCC(N)C(F)(F)F)c2c1` (stereo not shown) [Example 42-1, N^˜1^˜-[2-(1,1-Dioxido-2,3-dihydro-1,4-benzothiazepin-4(5H)-yl)-6-methylquinolin-4-yl]-4,4,4-trifluorobutane-1,3-diamine] gave an EC50 of 8.95 µM.
Work on `Cc1ccc2nc(N3CC[S+]([O-])c4ccccc4C3)cc(N3CCC(N)C3)c2c1` (stereo not shown) [Example 19-4, 1-[6-Methyl-2-(1-oxido-2,3-dihydro-1,4-benzothiazepin-4(5H)-yl)quinolin-4-yl]pyrrolidin-3-amine] yielded an EC50 of 0.02 µM.
With `OCC(O)Cc1cc(N2CCCc3ccccc3C2)nc2ccc(Cl)cc12` (stereo not shown) [Example 130-2, 3-[6-Chloro-2-(1,3,4,5-tetrahydro-2H-2-benzazepin-2-yl)quinolin-4-yl]propane-1,2-diol] the EC50 was 7.27 µM.
Work on `Cc1ccc2nc(N3CCS(=O)(=O)c4ccccc4C3)nc(NCC3(N)COC3)c2c1` [Example 61-1, N-[(3-Aminooxetan-3-yl)methyl]-2-(1,1-dioxido-2,3-dihydro-1,4-benzothiazepin-4(5H)-yl)-6-methylquinazolin-4-amine] yielded an EC50 of 0.005 µM.
`Cc1ccc2nc(N3CCSc4ccccc4C3)nc(NCC3(CN)COC3)c2c1` [Example 62-6, N-{[3-(Aminomethyl)oxetan-3-yl]methyl}-2-(2,3-dihydro-1,4-benzothiazepin-4(5H)-yl)-6-methylquinazolin-4-amine] gave an EC50 of 0.006 µM.
Compound `Cc1ccc2nc(N3CCS(=O)(=O)c4ccccc4C3)cc(NCCCCCCCN)c2c1` [Example 3-30, N-[2-(1,1-Dioxido-2,3-dihydro-1,4-benzothiazepin-4(5H)-yl)-6-methylquinolin-4-yl]heptane-1,7-diamine] has an EC50 of 7.81 µM.
Work on `CSc1ccc2nc(N3CCS(=O)(=O)c4ccccc4C3)cc(NCCCN)c2c1` [Example 9-33, N-[2-(1,1-Dioxido-2,3-dihydro-1,4-benzothiazepin-4(5H)-yl)-6-(methylsulfanyl)quinolin-4-yl]propane-1,3-diamine] yielded an EC50 of 0.057 µM.
`NCC1(CNc2cc(N3CCS(=O)(=O)c4ccccc4C3)nc3ccccc23)COC1` [Example 3-52, N-{[3-(Aminomethyl)oxetan-3-yl]methyl}-2-(1,1-dioxido-2,3-dihydro-1,4-benzothiazepin-4(5H)-yl)quinolin-4-amine] gave an EC50 of 0.005 µM.
`CNCCNc1cc(N2CCCc3ccccc3C2)nc2ccccc12` [Example 118-14, N-Methyl-N′-[2-(1,3,4,5-tetrahydro-2H-2-benzazepin-2-yl)quinolin-4-yl]ethane-1,2-diamine] gave an EC50 of 0.616 µM.
In the case of `Cc1ccc2nc(N3CCS(=O)(=O)c4ccccc4C3C)cc(NCC3(N)COC3)c2c1` (stereo not shown) [Example 2-8, N-[(3-Aminooxetan-3-yl)methyl]-6-methyl-2-(5-methyl-1,1-dioxido-2,3-dihydro-1,4-benzothiazepin-4(5H)-yl)quinolin-4-amine], the EC50 is reported as 0.055 µM.
For `Cc1ccc2nc(N3CCC(F)(F)c4ccccc4C3)cc(NCC(O)CO)c2c1` (stereo not shown) [Example 110-5, 3-{[2-(5,5-Difluoro-1,3,4,5-tetrahydro-2H-2-benzazepin-2-yl)-6-methylquinolin-4-yl]amino}propane-1,2-diol], the EC50 was 1.66 µM.
`COc1ccc2c(c1)S(=O)(=O)CCN(c1cc(NCCO)c3ccccc3n1)C2` [Example 9-2, 2-{[2-(8-M ethoxy-1,1-dioxido-2,3-dihydro-1,4-benzothiazepin-4(5 H)-yl)quinolin-4-yl]amino}ethanol] gave an EC50 of 4.77 µM.
With `CO[C@@H]1CNC[C@H]1Nc1cc(N2CCS(=O)(=O)c3ccccc3C2)nc2ccc(C)cc12` (relative stereo) [Example 8-4, 2-(1,1-Dioxido-2,3-dihydro-1,4-benzothiazepin-4(5H)-yl)-N-[trans-4-methoxypyrrolidin-3-yl]-6-methylquinolin-4-amine] the EC50 was 0.064 µM.
With `Cc1ccc2nc(N3CCS(=O)(=O)c4ccccc4C3)cc(NC3CNCC3F)c2c1` (stereo not drawn) [Example 28-1, 2-(1,1-Dioxido-2,3-dihydro-1,4-benzothiazepin-4(5H)-yl)-N-trans-(4-fluoropyrrolidin-3-yl)-6-methylquinolin-4-amine] the EC50 was 0.007 µM.
In the case of `Cc1ccc2nc(N3CCS(=O)(=O)c4ccccc4C3)cc(NCC3(CN)CS(=O)(=O)C3)c2c1` [Example 6-2, N-{[3-(Aminomethyl)-1,1-dioxidothietan-3-yl]methyl}-2-(1,1-dioxido-2,3-dihydro-1,4-benzothiazepin-4(5H)-yl)-6-methylquinolin-4-amine], the EC50 is reported as 0.908 µM.
For `Cc1cc2c(NCCN)cc(N3CCS(=O)(=O)c4ccccc4C3)nc2cc1F` [Example 9-24, N-[2-(1,1-Dioxido-2,3-dihydro-1,4-benzothiazepin-4(5H)-yl)-7-fluoro-6-methylquinolin-4-yl]ethane-1,2-diamine], the EC50 was 0.024 µM.
`CCNC1(CNc2cc(N3CCS(=O)(=O)c4ccccc4C3)nc3ccc(C)cc23)COC1` [Example 43, 2-(1,1-Dioxido-2,3-dihydro-1,4-benzothiazepin-4(5H)-yl)-N-{[3-(ethylamino)oxetan-3-yl]methyl}-6-methylquinolin-4-amine] gave an EC50 of 0.017 µM.

Tested on: established RSV infection
Experiment: not given
Settings: in vivo; cited from earlier work
In the case of palivizumab, the “efficacy in the treatment of established RSV infection” value is listed as “not effective”.

Tested on: RSV
Experiment: not given
Settings: Phase III clinical trials; cited from earlier work
For motavizumab, the benefit over palivizumab is given as “failed to show additional benefit over palivizumab”.
